What was measured:
[1] = target: biotinylated FKBP, FLAG FRB protein and everolimus; assay: AlphaLISA direct binding assay, FLAG FRB proteins with biotinylated FKBP and titrated everolimus; conditions: everolimus serial diluted from 600 nM; 30 nM biotinylated FKBP and each FLAG FRB protein
Protocol: FRB mutations were also ranked in an alternative assay format. Briefly, FRB proteins incorporating single and double mutations (SEQ ID NO: 319-323) were produced as FLAG tagged constructs in E. coli as described previously. 30 nM (final) of biotinylated FKBP (SEQ ID NO: 324) and each FLAG FRB protein were combined in the presence of everolimus serial diluted 1:3 from a starting final concentration of 600 nM into a 96 well ½ surface flat-bottom plate (PerkinElmer) and incubated for one hour at room temperature. All dilutions were made in 1× AlphaLISA Immunoassay buffer (PerkinElmer). Anti-Flag acceptor beads (PerkinElmer) were added at 10ug/ml final concentration and incubated for one hour at room temperature. Streptavidin donor beads (PerkinElmer), were then added at a final concentration of 40ug/ml and the plate was protected from light and incubated for 30 minutes at room temperature. The plate was then read on the PerkinElmer EnVision Multiplate reader equipped with the Alpha Module using excitation of 680 nm and a 570 nm Emission filter.

[2] = tested on: Jurkat cells with NFAT-LUC reporter (JNL); assay: Activation assay of redirected inhibitory RCAR (PD1 RCAR, FRB-FKBP switch) on PDL1-Fc; assay type: cell-based
Protocol: Jurkat cells with NFAT-LUC reporter (JNL) were grown to the density of 0.5×10^6/ml in Jurkat cell growth media with puromycin at 0.5 μg/ml. For each transfection 3×10^6 cells were spin down at 100 g for 10 minutes. Four μg DNA per construct were used per transfection. Amaxa Nucleofector solution V and supplement I was mixed and 100 μl was added into the tube with DNA construct. The mixture was then added to the cells and transferred to the electroporation cuvette. Electroporation was done under setting X-001 using Amaxa Nucleofector II Device. 0.5 ml of growth media was added immediately after electroporation and the mixture were transferred into 2 ml growth media in one well of the 6-well plate. After two hours, the rapalogue compound at various concentrations was added to cells. The cells were applied to tissue culture plate wells that were coated by the target. Tissue culture plate was coated with 5 μg/ml of PDL1-Fc or IgG1-Fc or any target for 2 hrs at 37° C., then blocked with the blocking buffer (DPBS with 5% serum) for 30 minutes. The transfected cells were added to the target plate with 100 μl per well and incubated further for 16 hrs. Luciferase One Glo reagent 100 μl was added per well. The samples were incubated for 5 min at 37° C. and then luminescence is measured using Envision plate reader. […]

mTOR = mTOR (Homo sapiens, UniProt P42345); conditions: low concentration; cited from earlier work
PI3K/mTOR = conditions: relatively higher concentrations; cited from earlier work
JNL cells = assay: Single vector CD19 RCAR constructs in JNL cells, NFAT reporter activation by dimerization molecule; assay type: cell-based; conditions: nM to sub-nM doses
Text: The constructs and viral particles were made and tested essentially as described in Example 11. Viral particles were introduced into JNL cells and evaluated for activity essentially as described in Example 1 except that the target was CD19 (as opposed to EGFRviii).
Construct 143775 was introduced into cells and the affect of dimerization molecule concentration on activation evaluated essentially as described in Example 14.

[3] = tested on: Jurkat cells with NFAT-LUC reporter (JNL); assay: NFAT activation assay, 9E10 anti-myc scFv RCAR with c-myc peptide multimers; assay type: cell-based; conditions: myc tags at 100 nM, 18 hr; compared with lower multimers
Protocol: Jurkat cells with NFAT-LUC reporter (JNL) were grown to the density of 0.5×10^6/ml in Jurkat cell growth media with puromycin at 0.5 μg/ml. For each transfection 2.5×10^6 cells were spin down at 100 g for 10 minutes. Two μg of DNA per construct were used per transfection. Amaxa Nucleofector solution V and supplement I was mixed and 100 μl was added into the tube with DNA construct. The mixture was then added to the cells and transferred to the electroporation cuvette. Electroporation was done under setting X-001 using Amaxa Nucleofector II Device. 0.5 ml of growth media was added immediately after electroporation and the mixture were transferred into 2 ml growth media in one well of the 6-well plate and incubated for two hours. For myc tags in solution, the cells were distributed into 96-wells, monomer, dimer, trimer or tetramer myc tags or IgG1 Fc were applied at 100 nM. The cells were incubated for 18 hr. Alternatively, tissue culture plate was coated with 100 nM of various myc tags or IgG1 Fc for two hours, blocked with the blocking buffer (DPBS with 5% serum) for 1 hour. The transfected cells were added to the target plate with 100 μl per well and incubated for 18 hrs. Luciferase One Glo reagent 100 μl was added per well. The samples were incubated for 5 min at 37° C. and then luminescence is measured using Envision plate reader.

Wild type FRB: His-FRB SEQ ID NO: 312 in competition assay; His-FLAG-FRB SEQ ID NO: 318 in direct binding assay
EC50 [1]: 3.9 nM

T2098L: FRB point mutant; SEQ ID NO: 315 (competition assay), SEQ ID NO: 321 (direct binding assay)
EC50 [1]: 1.44 nM

CO[C@H]1[C@@H](O)[C@H](C)C[C@H](C)/C=C/C=C/C=C(\C)[C@@H](c2c[nH]c3c(C)cccc23)C[C@@H]2CC[C@@H](C)[C@@](O)(O2)C(=O)C(=O)N2CCCC[C@H]2C(=O)O[C@H]([C@H](C)C[C@@H]2CC[C@@H](O)[C@H](OC)C2)C[C@H](O)[C@H](C)/C=C(\C)[C@H]1O [AP21967]
induction of NFAT signaling by PDL-1 target ([2]; PD1 RCAR (PD1-ECD-TM-FRB and FKBP-4 1BB-CD3 zeta), 500 nM AP21967): significant induction of signaling | potency in inducing dimerization of the heterodimerization switch, activation of NFAT signaling ([2]; PD1 RCAR, varying concentrations of AP21967, dose response): potent even at sub nM concentration

Cn1c(=O)n(-c2ccc(C(C)(C)C#N)cc2)c2c3cc(-c4cnc5ccccc5c4)ccc3ncc21 [BEZ235, 2-methyl-2-[4-(3-methyl-2-oxo-8-quinolin-3-yl-2,3-dihydro-imidazo[4,5-c]quinolin-1-yl)-phenyl]-propionitrile]
concentration at which mTOR inhibition predominates (mTOR): less than 100 nmol/L | concentration of dual PI3K/mTOR inhibition (PI3K/mTOR): approximately 500 nmol/L

E2032I: FRB point mutant; SEQ ID NO: 313 (competition assay), SEQ ID NO: 319 (direct binding assay)
EC50 [1]: 2.46 nM

E2032L: FRB point mutant; SEQ ID NO: 314 (competition assay), SEQ ID NO: 320 (direct binding assay)
EC50 [1]: 2.15 nM

CO[C@H]1C[C@@H]2CC[C@@H](C)[C@@](O)(O2)C(=O)C(=O)N2CCCC[C@H]2C(=O)O[C@H]([C@H](C)C[C@@H]2CC[C@@H](O)[C@H](OC)C2)CC(=O)[C@H](C)/C=C(\C)[C@@H](O)[C@@H](OC)C(=O)[C@H](C)C[C@H](C)/C=C/C=C/C=C/1C [rapamycin]
activation of RCAR (Construct 143775) over dimerization molecule concentration (JNL cells): effective at a broad range of concentrations

B1: EEQKLISEEDLGGGGSGGGGSGGGGSEEQKLISEEDLGGGGSGGGGSGGGGSEEQKLISEEDL (peptide)
chain: EEQKLISEEDLGGGGSGGGGSGGGGSEEQKLISEEDLGGGGSGGGGSGGGGSEEQKLISEEDL
NFAT activation by myc tag multimers [3]: Higher NFAT activation

B2: EEQKLISEEDLGGGGSGGGGSGGGGSEEQKLISEEDLGGGGSGGGGSGGGGSEEQKLISEEDLGGGGSGGGGSGGGGSEEQKLISEEDL (peptide)
chain: EEQKLISEEDLGGGGSGGGGSGGGGSEEQKLISEEDLGGGGSGGGGSGGGGSEEQKLISEEDLGGGGSGGGGSGGGGSEEQKLISEEDL
NFAT activation by myc tag multimers [3]: Higher NFAT activation
